Structures can show the parent of a compound that is named as a salt.
Target: T1, recombinant human LTA4 hydrolase (rhLTA4H) (Homo sapiens, UniProt P09960)
T1 construct: made in house; host or cells: Spodoptera frugiperda (Sf-9) cells, recombinant baculovirus (pFastBac1)
T1 sequence (P09960 1-611): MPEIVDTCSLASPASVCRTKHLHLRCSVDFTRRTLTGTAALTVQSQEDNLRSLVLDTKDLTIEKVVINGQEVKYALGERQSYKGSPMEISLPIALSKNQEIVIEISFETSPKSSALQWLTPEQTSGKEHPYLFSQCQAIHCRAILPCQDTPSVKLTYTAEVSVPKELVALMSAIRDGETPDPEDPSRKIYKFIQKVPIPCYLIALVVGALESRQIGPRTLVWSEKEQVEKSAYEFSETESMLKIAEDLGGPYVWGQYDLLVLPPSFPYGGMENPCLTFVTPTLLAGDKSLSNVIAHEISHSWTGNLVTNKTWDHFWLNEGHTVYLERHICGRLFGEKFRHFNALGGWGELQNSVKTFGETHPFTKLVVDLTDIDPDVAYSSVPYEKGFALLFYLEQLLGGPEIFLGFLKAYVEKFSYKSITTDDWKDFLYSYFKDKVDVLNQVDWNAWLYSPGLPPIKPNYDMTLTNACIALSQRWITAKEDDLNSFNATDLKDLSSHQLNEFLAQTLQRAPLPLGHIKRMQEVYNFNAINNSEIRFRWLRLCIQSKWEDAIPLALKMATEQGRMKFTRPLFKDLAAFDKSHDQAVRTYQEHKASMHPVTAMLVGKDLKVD
Experiment: Recombinant human LTA4 hydrolase assay for LTA4 hydrolase inhibitor activity
Type: biochemical
Details: rhLTA4H, LTA4 substrate, LTB4 by immunoassay; single determination or average; read-out: IC50
Procedure: Assay 1: Recombinant Human LTA4 Hydrolase Assay for LTA4 Hydrolase Inhibitor Activity
Compounds of the present invention were tested for LTA4 hydrolase inhibitor activity against recombinant human LTA4 hydrolase (rhLTA4H). Vectors were prepared and used to express rhLTA4H essentially as follows: LTA4 hydrolase encoding DNA was amplified by polymerase chain reaction (PCR) using a human placental cDNA library as a template. […] The amplified 1.9 kb DNA fragment encoding LTA4 hydrolase was isolated and cloned into the pFastBac1 vector (Invitrogen). Recombinant baculovirus was generated as described by the manufacturer, and used to infect Spodoptera frugiperda (Sf-9) cells. […] The purified enzyme solution was adjusted to contain 0.29 mg/mL LTA4 hydrolase, 50 mM Tris (pH 8.0), 150 mM NaCl, 5 mM dithiothreitol, 50% glycerol, and EDTA-free Complete protease inhibitor cocktail (Roche).
LTA4 substrate was prepared from the methyl ester of LTA4 (Cayman Chemical) by treatment with 67 equiv of NaOH under nitrogen at rt for 40 min. The LTA4 substrate in its free acid form was kept frozen at −80° C. until needed. Each compound was diluted to different concentrations in assay buffer (from Assay Designs) containing 10% DMSO. A 25-μL aliquot of each compound dilution was incubated for 10 min at rt with an equal volume of assay buffer containing 10 ng of recombinant human LTA4H. The solution was then adjusted to 200 μL with assay buffer. […] Each reaction was carried out at rt for 30 min. The reaction was stopped by diluting 10 μL of the reaction mixture with 200 μL of assay buffer. LTB4 was quantified in the diluted sample by a commercially available enzyme-linked immunoassay (Cayman Chemical Co.), as recommended by the manufacturer. Positive controls, under essentially identical conditions but without addition of an inhibitor compound, and negative controls, containing all assay components except enzyme, were routinely run in each experiment. IC50 values were determined by nonlinear regression of the activity data at different compound concentrations using Graphpad Prism 4.0, one site binding competition.
The values presented here are the result of a single determination or an average of two or more determinations, as indicated in parentheses following each value. For compounds tested three or more times, the average value is followed by the standard deviation

SMILES	IC50 [nM]
CCC(=O)NC1CCN(Cc2ccc(Oc3nc4cccnc4s3)cc2)CC1 [Example 219, N-{1-[4-([1,3]Thiazolo[5,4-b]pyridin-2-yloxy)benzyl]piperidin-4-yl}propanamide]	276
CN(CCN1CCCCC1)Cc1ccc(Oc2nc3ncccc3s2)cc1 [Example 271, N-Methyl-2-piperidin-1-yl-N-[4-([1,3]thiazolo[4,5-b]pyridin-2-yloxy)benzyl]ethanamine]	293
Cc1ccnc2nc(Oc3ccc(CN4CCN(c5ccncc5)CC4)cc3)sc12 [Example 168, 7-Methyl-2-({4-[(4-pyridin-4-ylpiperazin-1-yl)methyl]phenyl}oxy)[1,3]thiazolo[4,5-b]pyridine]	647
NC(=O)C1CCN(Cc2ccc(Oc3nc4cccnc4s3)cc2)CC1 [Example 113, 1-[4-([1,3]Thiazolo[5,4-b]pyridin-2-yloxy)benzyl]piperidine-4-carboxamide]	570
Cc1ccnc2sc(Oc3ccc(CN4CCC(C(N)=O)CC4)cc3)nc12 [Example 286, 1-{4-[(7-Methyl[1,3]thiazolo[5,4-b]pyridin-2-yl)oxy]benzyl}piperidine-4-carboxamide]	> 10000
Cc1cnc2nc(Oc3ccc(CN4CCC(C(=O)N5CCNCC5)CC4)cc3)sc2c1 [Example 229, 6-Methyl-2-(4-{[4-(piperazin-1-ylcarbonyl)piperidin-1-yl]methyl}phenoxy)[1,3]thiazolo[4,5-b]pyridine hydrochloride]	1090
CS(=O)(=O)N[C@@H]1CC2CC[C@@H](C1)N2CCc1ccc(Oc2nc3cccnc3s2)cc1 [Example 194, meso-N-[(3-exo)-8-{2-[4-([1,3]Thiazolo[5,4-b]pyridin-2-yloxy)phenyl]ethyl}-8-azabicyclo[3.2.1]oct-3-yl]methanesulfonamide]	92
NC(=O)N1C[C@@H]2C[C@H]1CN2Cc1ccc(Oc2nc3ncc(Cl)cc3s2)cc1 [Example 193, (1S,4S)-5-({4-[(6-Chloro[1,3]thiazolo[4,5-b]pyridin-2-yl)oxy]phenyl}methyl)-2,5-diazabicyclo[2.2.1]heptane-2-carboxamide]	58
c1cc2nc(Oc3ccc(CN4CCCCC4)cc3)sc2cn1 [Example 114, 2-[4-(Piperidin-1-ylmethyl)phenoxy][1,3]thiazolo[5,4-c]pyridine]	680
COc1ccccc1C1CCN(CCOc2ccc(Oc3nc4cccnc4s3)cc2)CC1 [Example 41, 2-(4-{2-[4-(2-Methoxyphenyl)piperidin-1-yl]ethoxy}phenoxy)[1,3]thiazolo[5,4-b]pyridine]	340
CC(=O)N1[C@@H]2CC[C@H]1C[C@H](NCc1ccc(Oc3nc4ncccc4s3)cc1)C2 [Example 170, meso-(3-exo)-8-Acetyl-N-{[4-([1,3]thiazolo[4,5-b]pyridin-2-yloxy)phenyl]methyl}-8-azabicyclo[3.2.1]octan-3-amine]	29
O=C(C1CC1)N1CCN(CCc2ccc(Oc3nc4ncc(Cl)cc4s3)cc2)CC1 [Example 197, 6-Chloro-2-[(4-{2-[4-(cyclopropylcarbonyl)piperazin-1-yl]ethyl}phenyl)oxy][1,3]thiazolo[4,5-b]pyridine]	360
CN1CCN(C(=O)C2CCN(Cc3ccc(Oc4nc5ccncc5s4)cc3)CC2)CC1 [Example 227, 2-[4-({4-[(4-Methylpiperazin-1-yl)carbonyl]piperidin-1-yl}methyl)phenoxy][1,3]thiazolo[5,4-c]pyridine]	748
c1cnc2sc(Oc3ccc(OCCN4CCOCC4)cc3)nc2n1 [Example 150, 2-[4-(2-Morpholin-4-ylethoxy)phenoxy][1,3]thiazolo[4,5-b]pyrazine]	602
OCC1CN(Cc2ccc(Oc3nc4ncccc4s3)cc2)CCO1 (stereo not drawn) [Example 82, {4-[4-([1,3]Thiazolo[4,5-b]pyridin-2-yloxy)benzyl]morpholin-2-yl}methanol]	140
OC1(c2cccc(C(F)(F)F)c2)CCN(CCOc2ccc(Oc3nc4cccnc4s3)cc2)CC1 [Example 37, 1-{2-[4-([1,3]Thiazolo[5,4-b]pyridin-2-yloxy)phenoxy]ethyl}-4-[3-(trifluoromethyl)phenyl]piperidin-4-ol]	160
Cc1cnc2nc(Oc3ccc(CN4CCC(C(=O)N(C)C)CC4)cc3)sc2c1 [Example 172, N,N-Dimethyl-1-({4-[(6-methyl[1,3]thiazolo[4,5-b]pyridin-2-yl)oxy]phenyl}methyl)piperidine-4-carboxamide]	26
CCCN(CCC)CCc1ccc(Oc2nc3cnccc3s2)cc1 [Example 196, N-Propyl-N-{2-[4-([1,3]thiazolo[4,5-c]pyridin-2-yloxy)phenyl]ethyl}propan-1-amine]	87

More lines, in order of falling IC50, values ahead:

IC50 [nM]	SMILES
2510	O=C(c1ccccn1)N1CCN(Cc2ccc(Oc3nc4ccncc4s3)cc2)CC1 [Example 217, 2-(4-{[4-(Pyridin-2-ylcarbonyl)piperazin-1-yl]methyl}phenoxy)[1,3]thiazolo[5,4-c]pyridine]
791	CN(Cc1ccc(Oc2nc3ccncc3s2)cc1)C1CCCCC1 [Example 175, N-Methyl-N-[4-([1,3]thiazolo[5,4-c]pyridin-2-yloxy)benzyl]cyclohexanamine]
370	O=C1CCCN1C1CCN(Cc2ccc(Oc3nc4cccnc4s3)cc2)CC1 [Example 112, 1-{1-[4-([1,3]Thiazolo[5,4-b]pyridin-2-yloxy)benzyl]piperidin-4-yl}pyrrolidin-2-one]
331	NC(=O)N1CC2CN(CCc3ccc(Oc4nc5ccncc5s4)cc3)CC2C1 (stereo not drawn) [Example 246, 5-{2-[4-([1,3]Thiazolo[5,4-c]pyridin-2-yloxy)phenyl]ethyl}hexahydropyrrolo[3,4-c]pyrrole-2(1H)-carboxamide]
180	CC(=O)N1C[C@@H]2C[C@H]1CN2Cc1ccc(Oc2nc3cc(F)cnc3s2)cc1 [Example 123, 2-(4-{[(1S,4S)-5-Acetyl-2,5-diazabicyclo[2.2.1]hept-2-yl]methyl}phenoxy)-6-fluoro[1,3]thiazolo[5,4-b]pyridine]
175	Cc1cnc2nc(Oc3ccc(CCN4CCC(C(=O)N5CCCC5)CC4)cc3)sc2c1 [Example 198, 6-Methyl-2-[(4-{2-[4-(pyrrolidin-1-ylcarbonyl)piperidin-1-yl]ethyl}phenyl)oxy][1,3]thiazolo[4,5-b]pyridine]
130	CC(=O)N1C[C@@H]2C[C@H]1CN2CCOc1ccc(Oc2nc3cccnc3s2)cc1 [Example 20, 2-(4-{2-[(1S,4S)-5-Acetyl-2,5-diazabicyclo[2.2.1]hept-2-yl]ethoxy}phenoxy)[1,3]thiazolo[5,4-b]pyridine]
114	OCCN(CCOc1ccc(Oc2nc3cccnc3s2)cc1)CC1CC1 [Example 157, 2-[(Cyclopropylmethyl){2-[4-([1,3]thiazolo[5,4-b]pyridin-2-yloxy)phenoxy]ethyl}amino]ethanol]
94	CCN(CCc1ccc(Oc2nc3cccnc3s2)cc1)C1CC1 [Example 174, N-Ethyl-N-{2-[4-([1,3]thiazolo[5,4-b]pyridin-2-yloxy)phenyl]ethyl}cyclopropanamine]
67	Cc1cnc2nc(Oc3ccc(CN4CCN(C5CCC5)CC4)cc3)sc2c1 [Example 183, 2-({4-[(4-Cyclobutylpiperazin-1-yl)methyl]phenyl}oxy)-6-methyl[1,3]thiazolo[4,5-b]pyridine]
35	Cc1ccnc2nc(Oc3ccc(CN4CCC(NC(=O)c5ccncc5)CC4)cc3)sc12 [Example 206, N-(1-{4-[(7-Methyl[1,3]thiazolo[4,5-b]pyridin-2-yl)oxy]benzyl}piperidin-4-yl)pyridine-4-carboxamide]
18	CC(=O)N1[C@@H]2CC[C@H]1CN(CCc1ccc(Oc3nc4ncccc4s3)cc1)C2 [Example 212, meso-2-(4-{2-[8-Acetyl-3,8-diazabicyclo[3.2.1]oct-3-yl]ethyl}phenoxy)[1,3]thiazolo[4,5-b]pyridine]

Reference: patent US20110190503A1, “Thiazolopyridin-2-yloxy-phenyl and thiazolopyrazin-2-yloxy-phenyl amines as modulators of leukotriene A4 hydrolase” (Janssen Pharmaceutical NV, priority 2008, published 2011)
